Measurements from patent US20260053750A1, “INHALABLE COMPOSITIONS OF CDK9 INHIBITORS” (THE REGENTS OF THE UNIVERSITY OF CALIFORNIA, priority 2022, published 2026).

Experiments:
[1] = encapsulation and release in microparticles of the invention; format: physicochemical
NFκB target genes = experiment: suppression of IL-1β-induced primary inflammatory response genes in human cell culture; format: cell-based
Experimental: CDK9 inhibitors exert effects on the inflammatory response pathway. For example, the pharmacological CDK9 inhibitor flavopiridol effectively suppresses the activation of a broad range of primary inflammatory response genes, in human cell culture treated with IL-1β for 5 hours (see FIG. 1). Among the 67 different genes (out of 84 total NFκB target genes tested) that were induced by IL-1β, 59 were repressed by flavopiridol co-treatment (including the most-characterized pro-inflammatory cytokines such as IL-1β, Il-6, and TNF). The average magnitude of repression is >86% of maximum induction. […] Importantly, house-keeping genes and non-inducible genes are not affected by CDK9 inhibition short term, indicating potential reduction in side effects.

[2] = test system: TNF-stimulated luciferase reporter expression, driven by a NF-kB responsive promoter, in HEK293 cells; experiment: NF-kB luciferase reporter bioactivity assay; format: cell-based, Human; settings: 300 nM flavopiridol, 0.6 nM TNF-α, 24 h
Experimental: The bioactivity of flavopiridol released from ILDF particles was determined by a luciferase reporter assay as described previously. ILDF particles (18.94 mg) containing 0.190% (w/w) flavopiridol was dissolved in DMEM with 10% FBS to a stock solution of 8.9×10^4 nM flavopiridol. The bioactivity of flavopiridol was measured by its ability to suppress TNF-stimulated luciferase reporter expression, driven by a NF-kB responsive promoter. Human embryonic kidney 293 cells (HEK293) cells (ATCC) harboring a NF-kB-driven luciferase reporter were seeded in 96-well plates (10,000 cells/well in triplicates) 24 hours before the experiment. Cells were then treated with 100 μL of media containing 0.6 nM recombinant human TNF-α (Peprotech), in the presence or absence of various amount of dissolved flavopiridol formulation or blank formulation equivalent. After 24 h, 100 μL of 2× lysis buffer (Invitrogen) containing luciferase substrate was added directly to each well. Luminescence was measured in a plate reader (SpectraMax iD3, Molecular Devices). Experiments were performed in triplicate (N=3) from one batch of particles, and results were reported as mean±SD.

[3] = test system: lung fibrosis mouse model (bleomycin); experiment: bleomycin lung fibrosis mouse model, i.p. treatment; format: in vivo, C57B/L6 mice; settings: vs BLM+ vehicle control
Experimental: The effects of flavopiridol on lung inflammation and fibrosis were assessed in a lung fibrosis mouse model. C57B/L6 mice were treated with bleomycin (BLM) by microsprayer. At day 7 after BLM treatment, alveolar damage became apparent in the treated mice. At day 9, the mice were divided into 4 groups of 8 animals each. Each group received its corresponding treatment every other day starting at Day 9. At Day 30, the animals were sacrificed and assessed. One group received only phosphate buffer saline (PBS). One group received 28 mg/kg nitedanib by intraperitoneal injection (i.p.). One group received 2.5 mg/kg of flavopiridol i.p. and one group received 28 mg/kg idebenone i.p. Survival and lung morphology were assessed at day 30. […] Lung tissue sections from the treated animals were stained with Masson's trichome staining protocol and exemplary images are shown in FIG. 8D.

[4] = test system: pulmonary fibrosis in mice using bleomycin; experiment: bleomycin pulmonary fibrosis in mice, inhaled flavopiridol; format: in vivo; settings: every two days from eight days post-bleomycin, 14-day treatment
Experimental: Our experimental model involved the induction of pulmonary fibrosis in mice using bleomycin, followed by the administration of inhaled flavopiridol during the early fibrotic phase of the model. Eight days post-intratracheal instillation of bleomycin, mice were treated with either a vehicle or inhaled flavopiridol every two days. After a 14-day treatment course, lung tissues were harvested and subjected to histological and biochemical analysis. A notable loss of body weight observed in bleomycin-exposed mice served as an indicator of successful fibrosis induction (FIG. 9).

[5] = cited from earlier work
[6] = 2.5 mg/kg i.p. every other day from Day 9, Day 30

Row | Structure (SMILES) | encapsulation and release in microparticles [1] | average magnitude of repression (NFκB target genes; human cell culture treated with IL-1β for 5 hours, flavopiridol co-treatment) | number of IL-1β-induced genes repressed by flavopiridol co-treatment (NFκB target genes; of 67 genes induced by IL-1β (84 NFκB target genes tested), human cell culture, IL-1β for 5 hours) | TNF-α-stimulated luciferase activity [2] | hydroxyproline level [3, 6] | percentage of stained area (Masson's trichome, lung sections) [3, 6] | survival rate ([3]; 2.5 mg/kg i.p. every other day from Day 9, to Day 30) | body weight ([3]; 2.5 mg/kg i.p. every other day from Day 9) | hydroxyproline levels [4] | survival rate ([4]; vs vehicle group) | in-vivo half-life [5]
1 | CCc1cnn2c(NCc3ccc[n+]([O-])c3)cc(N3CCCC[C@H]3CCO)nc12 [Dinaciclib] | not encapsulated effectively or released appropriately |  |  |  |  |  |  |  |  |  | 
2 | CN1CC[C@H](c2c(O)cc(O)c3c(=O)cc(-c4ccccc4Cl)oc23)[C@H](O)C1 [flavopiridol, 2-(2-chlorophenyl)-5,7-dihydroxy-8-[(3S,4R)-3-hydroxy-1-methyl-4-piperidinyl]-4-chromenone] |  | > 86 % of maximum induction | 59 | the luciferase activation was suppressed | statistically significant lower level of hydroxyproline | statistically significant decrease in percentage of stained area | statistically significant difference in survival rate | generally maintained a higher body weight | appeared to suppress the bleomycin-induced increase of hydroxyproline levels | higher survival rate | under 6 hours
